This experiment has as its system CEM cells HIV-1 protection, formazan growth assay. The experiment can be described thus: NCI AIDS Antiviral Assay. To be noted: for IC50: measured here: growth of uninfected CEM cells. A digest of the protocol: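 Protection of CEM cells against HIV-1 was scored from cell growth (soluble formazan) across five concentrations, with parallel uninfected cells. Lack of protection may reflect toxicity.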

By EC50 is commonly meant the concentration needed to bring the measured effect to its halfway point. As usually defined, the IC50 is the concentration that inhibits the measured activity by half. High values mean weaker potency, low ones greater potency.

Active and inactive are the calls of the source.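 How the source made its calls: active means compounds giving half or more protection of infected cells from virus-caused growth loss, again on retest; inactive means the rest.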 Where a SMILES comes first, the peptide text is derived from it. [ ]: non-standard residue; d: D form. The star is where a group is joined. ξ: configuration not given here. X19 = O=C(OCc1ccccc1)[C@H]1CCC[C@H]1N*; ξW = NC(Cc1c[nH]c2ccccc12)C(=O)O; ξF = NC(Cc1ccccc1)C(=O)O; Cbz = O=C(OCc1ccccc1)*; Boc = CC(C)(C)OC(=O)*; ξK = NCCCCC(N)C(=O)O; ξT = CC(O)C(N)C(=O)O; OBn = c1ccc(CO*)cc1; tBu = CC(C)(C)* A value given as a limit tells only on which side of the number the result lay.

`O=[N+]([O-])c1ccc(C2CC(c3ccccc3Cl)=Nc3ccccc3S2=O)cc1` (centres undefined): the EC50 is > 4.9 µM and the IC50 was > 4.9 µM.

Take `CC[C@@H]1ON(C)[C@H]2CN(C)C(=O)[C@@H]12`: the EC50 is > 200 µM and the IC50 is > 200 µM. Regarding `COc1ccc(CC2Cc3ccccc3CCN2)cc1OC` (centres undefined), the outcome was inactive. `CC1(C)OC(=O)C2(O1)C(=O)C1CCCCC12` (centres undefined): the EC50 is > 200 µM and the IC50 is > 200 µM.

For `CC1(C)CC2=C(SC3C=CC=CC3N2)C(=O)C1C(=O)C(N)=O` (centres undefined), the EC50 was > 58.9 µM and the IC50 is > 58.9 µM. As for `COC(=O)/C=C1/Nc2c(n(C)c(=O)n(C)c2=O)NC1=O`, the EC50 is > 200 µM and the IC50 was > 200 µM. For `O=c1[nH]nc(Cc2ccc([N+](=O)[O-])cc2)n1CCO`, the EC50 was > 200 µM and the IC50 is > 200 µM. Consider `N#CC(C#N)=CNC(N)=S`, for which the EC50 was > 200 µM and the IC50 was > 200 µM. Consider `[CH2+][B-]1(C)n2cc(Br)c[n+]2[B-](C)(C)[n+]2cc(Br)cn21`, for which the EC50 is > 200 µM and the IC50 stood at 105 µM. For `O=Cc1ccc2c(c1)CC1(Cc3ccccc3C1)C2`, in that order: > 200 µM and 33.9 µM.

Turning to `CCOC(=O)c1nc2cc(F)c(F)cc2nc1NCc1cc(OC)c(OC)c(OC)c1`, the EC50 is > 100 µM and the half-inhibitory concentration (IC50) is > 100 µM. For `O=C(Nc1ccc([N+](=O)[O-])cc1)C(=O)C(C(=O)c1ccccc1F)C1OC(=O)c2ccccc21` (centres undefined), the EC50 was > 204 µM and the IC50 stood at 8.71 µM. For `Cc1ccc(/C=C/C(=O)c2sc(-c3cccnc3)nc2C)cc1`, in that order: > 22.4 µM and > 22.4 µM. Taken in the same sequence, the figures for `NCC1Nc2ccccc2[C@@H](O)C1O` (some centres undefined) were > 933 µM and > 933 µM. Regarding `COc1cc2ccc3c4cc(OC)c(OC)cc4c[n+](C)c3c2cc1O`, the result was inactive. As for `Cc1cn(CCOCCOC(=O)NC(CCCN=C(N)N)C(=O)O)c(=O)[nH]c1=O` (centres undefined), the EC50 was > 200 µM and the IC50 is > 200 µM. On to `COc1c(OC)c(OC)c2c(=O)c(OC)c(-c3ccc4c(c3)OCO4)oc2c1OC`, for which the EC50 was > 200 µM and the IC50 was > 200 µM.

As to `C/C(=C\c1ccccc1)C(O)C(=O)c1nc2ccc([N+](=O)[O-])cc2[nH]c1=O` (centres undefined), the result was inactive. Take `CCSC1(SCC)CCN(C=NC(C)(C)C)C1`: the EC50 was > 912 µM and the IC50 is > 912 µM. On to `Cc1cc(S(=O)(=O)n2ccnc2Oc2ccccc2N)c(SSc2cc(Cl)c(C)cc2S(=O)(=O)n2ccnc2Oc2ccccc2N)cc1Cl`, for which the EC50 is > 100 µM and the IC50 was 19.5 µM. Regarding `CCc1cccc(C(C)C)c1NC(=O)C(=O)CC(=O)c1c(C)n([O-])c2ccccc2[n+]1=O`, the EC50 is > 3.31 µM and the IC50 is > 3.31 µM. Turning to `Clc1ccc(C=NC23CC4CC(CC(C4)C2)C3)c(Cl)c1`, the result was inactive. As for `C[n+]1c(-c2ccc(/C=N/NC(=O)c3ccc(C(=O)N/N=C/c4ccc(-c5cn6ccccc6[n+]5C)cc4)c(O)c3O)cc2)cn2ccccc21`, the EC50 was 8.32 µM and the IC50 was 8.71 µM. On to `CCOC(=O)c1sc2[n+](c1C)C(=O)/C(=C/c1ccc([N+](=O)[O-])cc1)S2`, for which the EC50 was > 200 µM and the IC50 came to 20.4 µM. As to `CCOC(=O)CC(=O)Nc1cccc2[nH]cnc12`, the EC50 is > 200 µM and the half-maximal inhibitory concentration (IC50) was > 200 µM. Take `CSC1=NC=C(C#N)C2=NC(c3cccs3)NN12` (centres undefined): the EC50 was > 339 µM and the IC50 came to 20.4 µM. As for `CCN(CC)CCCC(C)Nc1ccnc2cc(Cl)ccc12` (centres undefined), the outcome was inactive. Regarding `COc1ccc2c(c1)c1c3c(ccc4ncn2c43)N(CCO)CCN=1`, the EC50 was > 100 µM and the IC50 stood at 0.178 µM. For `CCN(CC)C1=Nc2ccccc2N(c2ccccc2)C(=S)C1`, in that order: > 200 µM and 85.1 µM. For `O=C1NC(O)c2cc3ccccc3cc2O1` (centres undefined), in that order: > 200 µM and 112 µM. For `Cc1ccc(-c2n[nH]c(Cc3nc(-c4ccc(C)cc4)n[nH]3)n2)cc1`, in that order: > 200 µM and > 200 µM. `Cn1c(=O)cc2[nH]c3ccccc3n2c1=O`: the EC50 is > 63.1 µM and the IC50 was > 63.1 µM.

With `O/N=C1\CCCC\C1=C/c1ccccc1`, the outcome was inactive. For `O=c1ccc2ccc(O)c3c4c(=O)ccc5ccc(O)c(c1c23)c54`, the outcome was inactive.

Consider `Cc1cc(C)c2nc3c(c(C(O)C4CCCCN4)c2c1)CC/C3=C\c1ccc(Cl)cc1` (centres undefined), for which the EC50 is > 22.9 µM and the IC50 was > 22.9 µM. Take `O=c1cn[nH]c2nc3ccccc3n12`: the EC50 was > 200 µM and the IC50 is > 200 µM. Turning to `O=C(O)CCCc1ccc2c(c1)CC1(C2)Cc2cc3c(cc2C1)CCCC3`, the EC50 is > 200 µM and the IC50 was 36.3 µM. For `COC(=O)C1=C(O)c2cc(OC)c(OC)c(OC)c2C(c2ccc3c(c2)OCO3)[C@@H]1C(=O)OC` (some centres undefined), the outcome was inactive. As for `CC#N.CC#N.COC(=O)[C@@H]1CCC(=O)[N-]1.COC(=O)[C@@H]1CCC(=O)[N-]1.COC(=O)[C@@H]1CCC(=O)[N-]1.COC(=O)[C@@H]1CCC(=O)[N-]1.[Rh+2].[Rh+2]`, the EC50 is > 200 µM and the IC50 was > 200 µM.

For the molecule `N#C/C(=C\c1cccc([N+](=O)[O-])c1)C(=O)c1ccccc1`, the EC50 was > 79.4 µM and the IC50 was determined as 40.7 µM. Taken in the same sequence, the figures for `CCN(CC)CCn1c2cc3c(cc2c(=O)c2cccnc21)OCO3` were > 200 µM and 7.94 µM. Consider `C=C1CCC2(C)[C@H](C)CC[C@H](O)C2(CCC=C(C)C)[C@@H]1Cc1c[nH]c2ccccc12` (some centres undefined), for which the result was inactive. As to `C=CC(C)(C)C(=C)C(=O)Nc1ccccc1I`, the EC50 is > 200 µM and the IC50 was > 200 µM. For the molecule `O=C(Cc1ccccc1)c1ccc2[nH]c(=O)oc2c1`, the EC50 is > 200 µM and the IC50 was found to be 102 µM.

With `CC(C)=CCC[C@@H](C)/C=C/C=C(\C)C(=O)CC[C@@H]1CC[N@+]2(C)CCCC[C@H]12`, the EC50 is > 200 µM and the IC50 was determined as 46.8 µM. Regarding `CC(OC(C)(C)C)C(NC(=O)C(CCCCNC(=O)OC(C)(C)C)NC(=O)C(Cc1c[nH]c2ccccc12)NC(=O)C(Cc1ccccc1)NC(=O)OCc1ccccc1)C(=O)NC(Cc1ccccc1)C(=O)N[C@@H]1CCC[C@@H]1C(=O)OCc1ccccc1` (some centres undefined) (Cbz-[ξF][ξW][ξK](Boc)[ξT](tBu)[ξF]-X19), the outcome was inactive.

For the molecule `CC1=CC(C)(C)NN1C1=NS(=O)(=O)c2ccccc2N1C`, the EC50 was > 200 µM and the IC50 was > 200 µM. Consider `Fc1ccc(C=NC23CC4CC(CC(C4)C2)C3)cc1`, for which the EC50 was > 28.2 µM and the IC50 was > 28.2 µM. Take `COC(=O)c1[nH]c(=S)[nH]c(=O)c1-c1ccc(Cl)cc1`: the EC50 is 251 µM and the IC50 is 603 µM. Taken in the same sequence, the figures for `COc1cccc(NC(=O)c2c(SC)n[nH]c2N)c1` were > 200 µM and > 200 µM.

In the case of `C[N+]12CCCc3cccc(c31)CCC2`, the EC50 is > 794 µM and the 50% inhibitory concentration (IC50) is 182 µM. For `CCOc1cc(C=Nc2ccc(Oc3ccc(Cl)cc3)c(Cl)c2)ccc1O`, in that order: > 200 µM and 29.5 µM.

Consider `COC(=O)CNC(=O)C(C)NC(=O)C(CC(=O)OCc1ccccc1)NC(=O)OCc1ccccc1` (stereo not drawn) (Cbz-Asp(OBn)-Ala-Gly-OMe; configuration not given here), for which the EC50 was > 200 µM and the IC50 stood at 107 µM. Turning to `O=c1oc(=O)c2cc3c(=O)oc(=O)c3cc12`, the EC50 was > 200 µM and the IC50 was > 200 µM. Regarding `CCOC(=O)C1SC(=Nc2ccc(Cl)cc2Cl)N=C1C` (centres undefined), the result was inactive. Turning to `C#CCNC(CSSCC(N)C(=O)O)C(=O)O` (centres undefined), the EC50 is 6.92 µM and the concentration for half-maximal inhibition (IC50) is > 200 µM. Taken in the same sequence, the figures for `COc1ccc(/C=C/C(=O)c2ccccc2)cc1OC` were > 97.7 µM and 18.2 µM. With `CN(C)c1ccc(C(c2c(O)c3ccc(O)cc3oc2=O)c2c(O)c3ccc(O)cc3oc2=O)cc1`, the EC50 was > 200 µM and the IC50 amounted to 30.2 µM. Turning to `Cc1ccc(S(=O)(=O)SC/C=C\CSS(=O)(=O)c2ccc(C)cc2)cc1`, the outcome was inactive. On to `CCOP(=O)(OCC)/C(=C/n1c(=S)[nH]c2ccc([N+](=O)[O-])cc21)C(=O)OC`, for which the EC50 is > 200 µM and the IC50 was determined as 115 µM.

With `CC(=O)Nc1ccc2c(c1)nc1c3ccccc3ccn21`, the EC50 is > 200 µM and the IC50 was found to be 29.5 µM.

For the molecule `CSC1=C(SC)C(=O)c2cn(C)c(=O)cc2C1=O`, the EC50 is > 200 µM and the IC50 was determined as 0.977 µM. For `COc1cc2c3c(c1)SC(C)C(=O)N3CCN2` (centres undefined), in that order: > 200 µM and 105 µM. For `Cc1nc(C(N)=S)sc1C(=O)CC(=O)C(=O)Nc1ccc(Br)cc1`, in that order: > 85.1 µM and > 85.1 µM. For the molecule `COc1ccc2c3c(c4cc(OC)c(OC)cc4c2c1)C[C@H]1CCCCN1C3`, the EC50 is > 31.6 µM and the IC50 worked out at 0.01 µM. On to `COc1cc(OC)cc(Oc2nc3cc(F)c(F)cc3nc2-c2ccccc2)c1`, for which the EC50 was > 200 µM and the IC50 was > 200 µM. `O=c1n(Cl)c(=O)n(Cl)c(=O)n1Cl`: the outcome was inactive. Consider `S=C(SSC(=S)C1CCCC1=NC1CCCCC1)C1CCCC1=NC1CCCCC1` (centres undefined), for which the EC50 is > 200 µM and the IC50 is 151 µM.

`O=C(NCCCCCCCN1CCCCCC1)C1c2ccccc2-c2ccccc21`: the EC50 was > 200 µM and the IC50 amounted to 39.8 µM. Taken in the same sequence, the figures for `OC12CCC[N+]1(Cc1ccccc1)CCC2` (centres undefined) were > 794 µM and 708 µM. For `CO/N=C(\C(=O)[N-][n+]1cnn(CC(=O)O)c1)c1csc(N)n1`, in that order: > 200 µM and > 200 µM.

The record behind these values is PubChem BioAssay AID179 (DTP/NCI, 2004).
